According to patent US20230278972A1, “SUBSTITUTED HALOALKYL SULFONANILIDE HERBICIDES” (FMC Corporation, priority 2020, published 2023):

Columns and labels:
Assay type in all cases: in vivo
kochia (Bassia scoparia) [1] = assay: Test A1 postemergence, kochia; settings: Postemergence
Summary of the method: (§1)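 Plants grown in pots of loam/sand mix; preemergence = soil-directed spray on seeded pots, postemergence = spray at 1–2 leaves, height 2–10 cm; test chemicals formulated in non-phytotoxic solvent with surfactant.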

soybean (Glycine max) [2] = assay: Test A1 postemergence, soybean; settings: Postemergence
Summary of the method: as §1

[3] = test system: Ryegrass, Italian (Italian ryegrass, Lolium multiflorum); assay: Test A1 preemergence, Ryegrass, Italian
Summary of the method: as §1

[4] = test system: horseweed (Erigeron canadensis); assay: Test A1 postemergence, horseweed; settings: Postemergence
Summary of the method: as §1

[5] = test system: ducksalad (Heteranthera limosa); assay: Test B1 flooded paddy test, ducksalad; settings: 250 g ai/ha, Flood, applied to paddy water, 2-leaf stage, visually evaluated after 10 to 14 days
From the text: (§2) A dash (-) response means no test result.

[6] = test system: wheat (Triticum aestivum); assay: Test A1 preemergence, wheat
Summary of the method: as §1

[7] = test system: ragweed (common ragweed, Ambrosia artemisiifolia); assay: Test A1 preemergence, ragweed
Summary of the method: as §1

[8] = test system: wheat (Triticum aestivum); assay: Test A1 postemergence, wheat; settings: Postemergence
Summary of the method: as §1

[9] = test system: Foxtail, Giant (giant foxtail, Setaria faberi); assay: Test A1 postemergence, Foxtail, Giant; settings: Postemergence
Summary of the method: as §1

[10] = test system: Pigweed, Palmer (palmer amaranth, palmer pigweed, Amaranthus palmeri); assay: Test A1 preemergence, Pigweed, Palmer
Summary of the method: as §1

[11] = test system: Foxtail, Giant (giant foxtail, Setaria faberi); assay: Test A1 preemergence, Foxtail, Giant
Summary of the method: as §1

rice (Oryza sativa) = assay: Test B1 flooded paddy test, rice; settings: 250 g ai/ha, Flood, applied to paddy water, 2-leaf stage, visually evaluated after 10 to 14 days
From the text: as §2

[12] = test system: goosegrass (Eleusine indica); assay: Test A1 postemergence, goosegrass; settings: Postemergence
Summary of the method: as §1

[13] = test system: Oat, Wild (wild oat, Avena fatua); assay: Test A1 preemergence, Oat, Wild
Summary of the method: as §1

[14] = test system: Ryegrass, Italian (Italian ryegrass, Lolium multiflorum); assay: Test A1 postemergence, Ryegrass, Italian; settings: Postemergence
Summary of the method: as §1

[15] = test system: Oat, Wild (wild oat, Avena fatua); assay: Test A1 postemergence, Oat, Wild; settings: Postemergence
Summary of the method: (§3)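 Plants were grown in a loam soil/sand blend, with test chemicals formulated in a non-phytotoxic solvent mixture containing surfactant. Preemergence treatment (corn) was a directed soil spray at planting. Postemergence treatment was applied to plants 2 to 10 cm tall at the one- to two-leaf stage.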

[16] = test system: Pigweed, Palmer (palmer amaranth, palmer pigweed, Amaranthus palmeri); assay: Test A1 postemergence, Pigweed, Palmer; settings: Postemergence
Summary of the method: as §3

corn (Zea mays) [17] = assay: Test A1 postemergence, corn; settings: Postemergence
Summary of the method: as §1

[18] = test system: goosegrass (Eleusine indica); assay: Test A1 preemergence, goosegrass
Summary of the method: as §1

soybean (Glycine max) [19] = assay: Test A1 preemergence, soybean
Summary of the method: as §1

[20] = test system: galium (catchweed bedstraw, Galium aparine); assay: Test A1 postemergence, galium; settings: Postemergence
Summary of the method: as §1

[21] = test system: blackgrass (Alopecurus myosuroides); assay: Test A1 postemergence, blackgrass; settings: Postemergence, 0 to 100 scale (0 no effect, 100 complete control)
Summary of the method: as §1

[22] = test system: ragweed (common ragweed, Ambrosia artemisiifolia); assay: Test A1 postemergence, ragweed; settings: Postemergence
Summary of the method: as §3

[23] = test system: blackgrass (Alopecurus myosuroides); assay: Test A1 preemergence, blackgrass
Summary of the method: as §1

[24] = test system: barnyardgrass (Echinochloa crus-galli); assay: Test B1 flooded paddy test, barnyardgrass; settings: 250 g ai/ha, Flood, applied to paddy water, 2-leaf stage, visually evaluated after 10 to 14 days
From the text: as §2

kochia (Bassia scoparia) [25] = assay: Test A1 preemergence, kochia
Summary of the method: as §1

corn (Zea mays) [26] = assay: Test A1 preemergence, corn
Summary of the method: as §3

[27] = 31 g ai/ha, 0 to 100 scale (0 no effect, 100 complete control), 10 days
[28] = 31 g ai/ha, 0 to 100 scale (0 no effect, 100 complete control)
[29] = 125 g ai/ha, 0 to 100 scale, 0 no effect, 100 complete control

Cc1c(NS(=O)(=O)C(F)(F)F)cc(C(=O)N2CCC(F)(F)CC2)c(C)c1C [Compound 357]
Plant response rating, Kochia (kochia (Bassia scoparia) [1]; [27]): 0
Plant response rating, Kochia (kochia (Bassia scoparia) [1]; 125 g ai/ha, 0 to 100 scale): 30
Plant response rating, Soybean (soybean (Glycine max) [2]; [27]): 40
Plant response rating, Soybean (soybean (Glycine max) [2]; 125 g ai/ha, 0 to 100 scale): 90
Plant response rating, Ryegrass, Italian [3, 28]: 0
Plant response rating, Ryegrass, Italian [3, 29]: 30
Plant response rating, Horseweed [4, 27]: 20
Plant response rating, Horseweed ([4]; 125 g ai/ha, 0 to 100 scale): 80
Plant response rating, Ducksalad (0 to 100 scale, 0 is no effect, 100 is complete control) [5]: 60
Plant response rating, Wheat [6, 28]: 0
Plant response rating, Wheat [6, 29]: 10
Plant response rating, Ragweed [7, 28]: 0
Plant response rating, Ragweed [7, 29]: 80
Plant response rating, Wheat [8, 27]: 0
Plant response rating, Wheat ([8]; 125 g ai/ha, 0 to 100 scale): 0
Plant response rating, Foxtail, Giant [9, 27]: 0
Plant response rating, Foxtail, Giant ([9]; 125 g ai/ha, 0 to 100 scale): 20
Plant response rating, Pigweed, Palmer [10, 28]: 40
Plant response rating, Pigweed, Palmer [10, 29]: 100
Plant response rating, Foxtail, Giant [11, 28]: 10
Plant response rating, Foxtail, Giant [11, 29]: 90
Plant response rating, Rice (0 to 100 scale, 0 is no effect, 100 is complete control) (rice (Oryza sativa)): 10
Plant response rating, Goosegrass [12, 27]: 0
Plant response rating, Goosegrass ([12]; 125 g ai/ha, 0 to 100 scale): 70
Plant response rating, Oat, Wild [13, 28]: 0
Plant response rating, Oat, Wild [13, 29]: 0
Plant response rating, Ryegrass, Italian [14, 27]: 20
Plant response rating, Ryegrass, Italian ([14]; 125 g ai/ha, 0 to 100 scale): 20
Plant response rating, Oat, Wild [15, 27]: 0
Plant response rating, Oat, Wild ([15]; 125 g ai/ha, 0 to 100 scale): 0
Plant response rating, Pigweed, Palmer [16, 27]: 0
Plant response rating, Pigweed, Palmer ([16]; 125 g ai/ha, 0 to 100 scale): 50
Plant response rating, Corn (corn (Zea mays) [17]; [27]): 0
Plant response rating, Corn (corn (Zea mays) [17]; 125 g ai/ha, 0 to 100 scale): 0
Plant response rating, Goosegrass [18, 28]: 80
Plant response rating, Goosegrass [18, 29]: 100
Plant response rating, Soybean (soybean (Glycine max) [19]; [28]): 0
Plant response rating, Soybean (soybean (Glycine max) [19]; [29]): 20
Plant response rating, Galium [20, 27]: 90
Plant response rating, Galium ([20]; 125 g ai/ha, 0 to 100 scale): 100
Plant response rating, Blackgrass ([21]; 31 g ai/ha, 10 days): 0
Plant response rating, Blackgrass ([21]; 125 g ai/ha): 0
Plant response rating, Ragweed [22, 27]: 80
Plant response rating, Ragweed ([22]; 125 g ai/ha, 0 to 100 scale): 80
Plant response rating, Blackgrass [23, 28]: 0
Plant response rating, Blackgrass [23, 29]: 10
Plant response rating, Barnyardgrass (0 to 100 scale, 0 is no effect, 100 is complete control) [24]: 45
Plant response rating, Kochia (kochia (Bassia scoparia) [25]; [28]): 20
Plant response rating, Kochia (kochia (Bassia scoparia) [25]; [29]): 40
Plant response rating, Corn (corn (Zea mays) [26]; [28]): 10
Plant response rating, Corn (corn (Zea mays) [26]; [29]): 90

Cc1c(C(=O)N2CCC(F)(F)CC2)cc(N(COC(=O)C(C)(C)C)S(=O)(=O)C(F)(F)F)c(C)c1C [Compound 360]
Plant response rating, Kochia (kochia (Bassia scoparia) [1]; [27]): 30
Plant response rating, Kochia (kochia (Bassia scoparia) [1]; 125 g ai/ha, 0 to 100 scale): 50
Plant response rating, Soybean (soybean (Glycine max) [2]; [27]): 20
Plant response rating, Soybean (soybean (Glycine max) [2]; 125 g ai/ha, 0 to 100 scale): 40
Plant response rating, Ryegrass, Italian [3, 28]: 0
Plant response rating, Ryegrass, Italian [3, 29]: 30
Plant response rating, Horseweed [4, 27]: 10
Plant response rating, Horseweed ([4]; 125 g ai/ha, 0 to 100 scale): 70
Plant response rating, Ducksalad (0 to 100 scale, 0 is no effect, 100 is complete control) [5]: 65
Plant response rating, Wheat [6, 28]: 0
Plant response rating, Wheat [6, 29]: 10
Plant response rating, Ragweed [7, 28]: 60
Plant response rating, Ragweed [7, 29]: 80
Plant response rating, Wheat [8, 27]: 0
Plant response rating, Wheat ([8]; 125 g ai/ha, 0 to 100 scale): 0
Plant response rating, Foxtail, Giant [9, 27]: 0
Plant response rating, Foxtail, Giant ([9]; 125 g ai/ha, 0 to 100 scale): 0
Plant response rating, Pigweed, Palmer [10, 28]: 0
Plant response rating, Pigweed, Palmer [10, 29]: 40
Plant response rating, Foxtail, Giant [11, 28]: 0
Plant response rating, Foxtail, Giant [11, 29]: 40
Plant response rating, Rice (0 to 100 scale, 0 is no effect, 100 is complete control) (rice (Oryza sativa)): 25
Plant response rating, Goosegrass [12, 27]: 0
Plant response rating, Goosegrass ([12]; 125 g ai/ha, 0 to 100 scale): 40
Plant response rating, Oat, Wild [13, 28]: 0
Plant response rating, Oat, Wild [13, 29]: 0
Plant response rating, Ryegrass, Italian [14, 27]: 0
Plant response rating, Ryegrass, Italian ([14]; 125 g ai/ha, 0 to 100 scale): 0
Plant response rating, Oat, Wild [15, 27]: 0
Plant response rating, Oat, Wild ([15]; 125 g ai/ha, 0 to 100 scale): 0
Plant response rating, Pigweed, Palmer [16, 27]: 20
Plant response rating, Pigweed, Palmer ([16]; 125 g ai/ha, 0 to 100 scale): 40
Plant response rating, Corn (corn (Zea mays) [17]; [27]): 0
Plant response rating, Corn (corn (Zea mays) [17]; 125 g ai/ha, 0 to 100 scale): 0
Plant response rating, Goosegrass [18, 28]: 0
Plant response rating, Goosegrass [18, 29]: 90
Plant response rating, Soybean (soybean (Glycine max) [19]; [28]): 0
Plant response rating, Soybean (soybean (Glycine max) [19]; [29]): 0
Plant response rating, Galium [20, 27]: 50
Plant response rating, Galium ([20]; 125 g ai/ha, 0 to 100 scale): 100
Plant response rating, Blackgrass ([21]; 31 g ai/ha, 10 days): 0
Plant response rating, Blackgrass ([21]; 125 g ai/ha): 0
Plant response rating, Ragweed [22, 27]: 70
Plant response rating, Ragweed ([22]; 125 g ai/ha, 0 to 100 scale): 90
Plant response rating, Blackgrass [23, 28]: 0
Plant response rating, Blackgrass [23, 29]: 0
Plant response rating, Barnyardgrass (0 to 100 scale, 0 is no effect, 100 is complete control) [24]: 95
Plant response rating, Kochia (kochia (Bassia scoparia) [25]; [28]): 0
Plant response rating, Kochia (kochia (Bassia scoparia) [25]; [29]): 30
Plant response rating, Corn (corn (Zea mays) [26]; [28]): 0
Plant response rating, Corn (corn (Zea mays) [26]; [29]): 0
